# Experiments:
# human Nth [1] = target: T1, human Nth (Homo sapiens, UniProt P78549); assay: Cleavage of human Nth by lucanthone (specificity control); details: data not shown
# T1 sequence (P78549 23-304): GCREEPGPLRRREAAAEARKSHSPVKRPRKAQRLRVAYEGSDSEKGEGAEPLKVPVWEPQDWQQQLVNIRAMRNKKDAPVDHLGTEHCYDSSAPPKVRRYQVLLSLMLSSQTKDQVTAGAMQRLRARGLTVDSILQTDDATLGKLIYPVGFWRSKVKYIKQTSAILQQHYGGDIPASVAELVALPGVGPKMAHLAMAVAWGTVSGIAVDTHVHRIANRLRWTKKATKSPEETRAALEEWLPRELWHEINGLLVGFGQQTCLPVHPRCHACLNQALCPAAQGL
# human Nth [2] = target: T1, human Nth; assay: Circular dichroism of human Nth with lucanthone; details: 140 µM lucanthone, 37°C, 60 min
compound,measurement,setting,value
"CCN(CC)CCNc1ccc(C)c2sc3ccccc3c(=O)c12 [lucanthone, 1-[2-diethylaminoethylamino]-4-methylthioxanthen-9-one]",Cleavage of human Nth,human Nth [1],did not observe any cleavage
same,Conformational change of human Nth (CD),human Nth [2],little conformational changes
